Literature values as cited in patent US20050244462A1, “Devices and methods for treating a mammalian eye” (Allergan, Inc., priority 2004, published 2005).

Details: steroidal anti-inflammatory efficacy in vivo; 25 mg hydrocortisone equivalent to 1 mg dexamethasone; Goodman and Gilman 8th ed. p. 1447

SMILES: C[C@]12CCC(=O)C=C1CC[C@@H]1[C@@H]2[C@@H](O)C[C@@]2(C)[C@H]1CC[C@]2(O)C(=O)CO [hydrocortisone]
- potency relative to dexamethasone: approximately twentyfivefold less potent than dexamethasone
